In patent US10294202B2, “Pyrrolidinones as herbicides” (FMC Corporation, priority 2013, dated 2019):

Tests used:
[1] = tested on: watergrass, late; experiment: Test F flood (paddy) test; assay type: in vivo, Echinochloa oryzicola; conditions: 21 d, scale 0-100
Excerpt: Three plastic pots (ca. 16-cm diameter) per rate were partially filled with sterilized Tama silt loam soil comprising a 35:50:15 ratio of sand, silt and clay and 2.6% organic matter. Separate plantings for each of the three pots were as follows. Seeds from the U.S. of monochoria (Monochoria vaginalis), sedge, umbrella (small-flower umbrella sedge, Cyperus difformis), bulrush, […] bulrush, Scirpus juncoides), and […] (purple […] coccinea), were planted into one 16-cm pot for each rate. Seeds from the U.S. of flatsedge, rice (rice flatsedge, Cyperus iria), sprangletop, Brdd. (bearded sprangletop, Leptochloa fascicularis), one stand of 9 or 10 water seeded rice seedlings (Rice, W.S. Jap, Oryza sativa cv. 'Japonica-[…]' or Rice, W.S. Ind, 'Indica'), and two stands of 3 or 4 seedlings of rice, transplanted (transplanted rice, Oryza sativa cv. 'Japonica-[…]') were planted into one 16-cm pot for each rate. Seeds from the U.S. of barnyardgrass (Echinochloa crus-galli), […] (common […], Alisma plantago-aquatica), and watergrass, late (late watergrass, Echinochloa oryzicola) were planted into one 16-cm pot for each rate. Plantings were sequential so that crop and weed species were at the 2.0 to 2.5-leaf stage at time of treatment. Potted plants were grown in a greenhouse with day/night temperature settings of 30/27° C., and supplemental balanced lighting was provided to maintain a 16-h photoperiod. Test pots were maintained in the greenhouse until test completion. At time of treatment, test pots were flooded to 3 cm above the soil surface, treated by application of test compounds directly to the paddy water, and then maintained at that water depth for the duration of the test. Effects of treatments on rice and weeds were visually evaluated by comparison to untreated controls after 21 d. Plant response ratings, summarized in Table F, are based on a scale of 0 to 100 where 0 is no effect and 100 is complete control. A dash (-) response means no test result.

[2] = tested on: soybean; experiment: Test E preemergence herbicide test; assay type: in vivo, Glycine max; set-up: key: 0 = no effect, 100 = complete control
Excerpt: (§1) Seeds of plant species selected from corn (Zea mays), soybean (Glycine max), velvetleaf (Abutilon theophrasti), lambsquarters (Chenopodium album), wild poinsettia (Euphorbia heterophylla), pigweed, palmer (palmer pigweed, Amaranthus palmeri), waterhemp (common waterhemp, Amaranthus rudis), surinam grass (Brachiaria decumbens), crabgrass, large (large crabgrass, Digitaria sanguinalis), crabgrass, Brazil (Brazilian crabgrass, Digitaria horizontalis), panicum, fall (fall panicum, Panicum dichotomiflorum), foxtail, giant (giant foxtail, Setaria faberii), foxtail, green (green foxtail, Setaria viridis), goosegrass (Eleusine indica), johnsongrass (Sorghum halepense), ragweed (common ragweed, Ambrosia elatior), barnyardgrass (Echinochloa crus-galli), sandbur (southern sandbur, Cenchrus echinatus), arrowleaf […] rhombifolia), ryegrass, Italian (Italian ryegrass, Lolium multiflorum), dayflower, VA (Virginia dayflower, Commelina virginica), field bindweed (Convolvulus arvensis), morningglory (Ipomoea coccinea), nightshade (eastern black nightshade, Solanum ptycanthum), kochia (Kochia scoparia), nutsedge, yellow (yellow nutsedge, Cyperus esculentus), cocklebur (common cocklebur, Xanthium strumarium), smartweed (ladysthumb smartweed, Polygonum Persicaria) and beggarticks (hairy beggarticks, Bidens pilosa), were planted into a silt loam soil and treated preemergence with test chemicals formulated in a non-phytotoxic solvent mixture which included a surfactant. Treated plants and controls were maintained in a greenhouse for 21 days, after which time all species were compared to controls and visually evaluated. Plant response ratings, summarized in Table E, are based on a scale of 0 to 100 where 0 is no effect and 100 is complete control. A dash (-) response means no test result.

[3] = tested on: field bindweed; experiment: Test E preemergence herbicide test; assay type: in vivo, Convolvulus arvensis; set-up: key: 0 = no effect, 100 = complete control
Excerpt: as §1

[4] = tested on: beggarticks; experiment: Test E preemergence herbicide test; assay type: in vivo, Bidens pilosa; set-up: key: 0 = no effect, 100 = complete control
Excerpt: as §1

[5] = tested on: goosegrass; experiment: Test C pre-/postemergence herbicide test; assay type: in vivo, Eleusine indica
Excerpt: Seeds of plant species selected from blackgrass (Alopecurus myosuroides), ryegrass, Italian (Italian ryegrass, Lolium multiflorum), wheat (winter wheat, Triticum aestivum), galium (catchweed bedstraw, Galium aparine), corn (Zea mays), crabgrass, large (large crabgrass, Digitaria sanguinalis), foxtail, giant (giant foxtail, Setaria faberii), johnsongrass (Sorghum halepense), lambsquarters (Chenopodium album), morningglory (Ipomoea coccinea), nutsedge, yellow (yellow nutsedge, Cyperus esculentus), pigweed (Amaranthus retroflexus), ragweed (common ragweed, Ambrosia elatior), soybean (Glycine max), barnyardgrass (Echinochloa crus-galli), oilseed rape (Brassica napus), waterhemp (common waterhemp, Amaranthus rudis), kochia (Kochia scoparia), oat, wild (wild oat, Avena fatua), surinam grass (Brachiaria decumbens), foxtail, green (green foxtail, Setaria viridis), goosegrass (Eleusine indica), bromegrass, downy (downy bromegrass, Bromus tectorum), nightshade (eastern black nightshade, Solanum ptycanthum), cocklebur (common cocklebur, Xanthium strumarium), cupgrass, woolly (woolly cupgrass, Eriochloa villosa), bermudagrass (Cynodon dactylon), sunflower, (common oilseed sunflower, Helianthus annuus), Russian thistle (Salsola kali) and velvetleaf (Abutilon theophrasti) were planted into a blend of loam soil and sand and treated preemergence with test chemicals formulated in a non-phytotoxic solvent mixture which included a surfactant. At the same time, plants selected from these crop and weed species and also barley (winter barley, Hordeum vulgare), […]), chickweed (common chickweed, Stellaria media), deadnettle (henbit deadnettle, Lamium amplexicaule), and canarygrass (littleseed canarygrass, Phalaris minor) were planted in pots containing Redi-Earth® planting medium (Scotts Company, 14111 Scottslawn Road, Marysville, Ohio 43041) comprising spaghnum peat moss, vermiculite, wetting agent and starter nutrients and treated with postemergence applications of test chemicals formulated in the same manner. Plants ranged in height from 2 to 18 cm (1- to 4-leaf stage) for postemergence treatments. Treated plants and controls were maintained in a greenhouse for 13 to 15 days, after which time all species were compared to controls and visually evaluated. Plant response ratings, summarized in Table C, are based on a scale of 0 to 100 where 0 is no effect and 100 is complete control. A dash (-) response means no test result.

[6] = tested on: bermudagrass; experiment: Test C pre-/postemergence herbicide test; assay type: in vivo, Cynodon dactylon
Outline: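 Greenhouse plants scored visually against untreated controls 13–15 days after treatment, 0 = no effect, 100 = complete control. Test chemicals in a non-phytotoxic solvent with surfactant were applied either to soil (loam/sand) at planting or to foliage of 1- to 4-leaf plants, 2–18 cm tall.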

[7] = Preemergence, 62 g ai/ha, scale 0 to 100
[8] = Preemergence, 125 g ai/ha, scale 0 to 100 (0 no effect, 100 complete control)
[9] = Preemergence, 31 g ai/ha, scale 0 to 100 (0 no effect, 100 complete control)
[10] = Preemergence, 250 g ai/ha, scale 0 to 100 (0 no effect, 100 complete control)
[11] = Postemergence, 31 g ai/ha, scale 0 (no effect) to 100 (complete control)
[12] = Postemergence, 62 g ai/ha, scale 0 to 100 (0 no effect, 100 complete control)
[13] = Postemergence, 125 g ai/ha, scale 0 to 100 (0 no effect, 100 complete control)
[14] = Postemergence, 250 g ai/ha, scale 0 to 100 (0 no effect, 100 complete control)

Compound | Plant response rating, Watergrass, Late ([1]; 125 g ai/ha) | Plant response rating, Watergrass, Late ([1]; 250 g ai/ha) | Plant response rating, Watergrass, Late ([1]; 500 g ai/ha) | Plant response rating, Soybean ([2]; 31 g ai/ha) | Plant response rating, Soybean ([2]; 62 g ai/ha) | Plant response rating, Soybean ([2]; 125 g ai/ha) | Plant response rating, Soybean ([2]; 250 g ai/ha) | Plant response rating, Field Bindweed ([3]; 31 g ai/ha) | Plant response rating, Field Bindweed ([3]; 62 g ai/ha) | Plant response rating, Field Bindweed ([3]; 125 g ai/ha) | Plant response rating, Field Bindweed ([3]; 250 g ai/ha) | Plant response rating, Beggarticks ([4]; 31 g ai/ha) | Plant response rating, Beggarticks ([4]; 62 g ai/ha) | Plant response rating, Beggarticks ([4]; 125 g ai/ha) | Plant response rating, Beggarticks ([4]; 250 g ai/ha) | also measured
O=C1NCC(c2ccc(F)c(F)c2)C1C(=O)Nc1cccc(F)c1F (racemic) [Compound 101] | 75 | 85 | 85 | – | – | – | – | – | – | – | – | – | – | – | – | Plant response rating, Watergrass, Late ([1]; 64 g ai/ha): 65
O=C1NCC(c2ccc(C(F)(F)F)cc2)C1C(=O)Nc1cccc(F)c1F (racemic) [Compound 202] | – | – | – | 0 | 0 | 0 | 0 | 60 | 40 | 50 | 70 | 0 | 0 | 35 | 80 | –
O=C1NCC(c2cccc(C(F)F)c2)C1C(=O)Nc1ccccc1F (racemic) [Compound 210] | 55 | 75 | 90 | – | – | – | – | – | – | – | – | – | – | – | – | –
O=C1NCC(c2ccc(OC(F)F)cc2)C1C(=O)Nc1cccc(F)c1F (racemic) [Compound 350] | – | – | – | 0 | 0 | 0 | 0 | 40 | 60 | 65 | 60 | 0 | 0 | 20 | 20 | –
O=C1NCCC1C(=O)N(c1ccc(F)c(F)c1)c1ccccc1F (centres unmarked) [Compound 5, N-(3,4-difluorophenyl)-N-(2-fluorophenyl)-2-oxo-3-pyrrolidinecarboxamide] | 55 | 70 | 75 | – | – | – | – | – | – | – | – | – | – | – | – | Plant response rating, Goosegrass [5, 7]: 0; Plant response rating, Goosegrass [5, 8]: 0; Goosegrass plant response rating [5, 9]: 0; Plant response rating, Bermudagrass [6, 7]: 0; Plant response rating, Bermudagrass [6, 8]: 20; Bermudagrass plant response rating [6, 9]: 0; Plant response rating, Bermudagrass [6, 10]: 45; Plant response rating, Watergrass, Late ([1]; 1000 g ai/ha): 100; Plant response rating, Watergrass, Late ([1]; 2000 g ai/ha): 100
O=C1NCC(c2ccc(F)c(F)c2)C1C(=O)Nc1cccc(F)c1F (centres unmarked) [Compound 17, N-(2,3-difluorophenyl)-4-(3,4-difluorophenyl)-2-oxo-3-pyrrolidinecarboxamide] | 80 | 85 | 90 | 0 | 0 | 0 | 0 | 0 | 0 | 0 | 0 | – | – | – | – | Plant response rating, Goosegrass [5, 11]: 0; Plant response rating, Goosegrass [5, 12]: 0; Plant response rating, Goosegrass [5, 13]: 0; Plant response rating, Goosegrass [5, 14]: 0; Plant response rating, Goosegrass [5, 7]: 50; Plant response rating, Goosegrass [5, 8]: 85; Goosegrass plant response rating [5, 9]: 0; Plant response rating, Bermudagrass [6, 11]: 0; Plant response rating, Bermudagrass [6, 12]: 0; Plant response rating, Bermudagrass [6, 13]: 0; Plant response rating, Bermudagrass [6, 14]: 0; Plant response rating, Bermudagrass [6, 7]: 45; Plant response rating, Bermudagrass [6, 8]: 85; Bermudagrass plant response rating [6, 9]: 0; Plant response rating, Bermudagrass [6, 10]: 90; Plant response rating, Soybean ([2]; 16 g ai/ha): 0; Plant response rating, Field Bindweed ([3]; 16 g ai/ha): 0; Plant response rating, Watergrass, Late ([1]; 1000 g ai/ha): 90; Plant response rating, Watergrass, Late ([1]; 2000 g ai/ha): 95
O=C1NCC(c2ccc(C(F)(F)F)cc2)C1C(=O)Nc1cccc(F)c1F (centres unmarked) [Compound 80, N-(2,3-difluorophenyl)-2-oxo-4-[4-(trifluoromethyl)phenyl]-3-pyrrolidinecarboxamide] | – | – | – | 0 | 0 | 0 | 40 | 0 | 0 | 0 | 0 | 0 | 0 | 20 | 60 | Plant response rating, Soybean ([2]; 16 g ai/ha): 0; Plant response rating, Field Bindweed ([3]; 16 g ai/ha): 0; Plant response rating, Beggarticks ([4]; 16 g ai/ha): 0
CN1CC(c2ccc(F)c(F)c2)C(C(=O)Nc2cccc(F)c2F)C1=O (centres unmarked) [Compound 303] | 95 | 100 | 100 | – | – | – | – | – | – | – | – | – | – | – | – | Plant response rating, Watergrass, Late ([1]; 62 g ai/ha): 95
